# In ChEMBL document CHEMBL4184289, “Design, synthesis and anticancer activities evaluation of novel 5H-dibenzo[b,e]azepine-6,11-dione derivatives containing 1,3,4-oxadiazole units” (Bioorg Med Chem Lett, 2018):
# pIC50: −log10 of the molar value. Active and inactive are the calls of the source. The calls are words filed in the database; no cut-off is given here.
# Experiments:
# OVCAR-3 [1] = assay: Antiproliferative activity against human OVCAR3 cells after 24 hrs by MTT assay; format: functional, cell-based; conditions: for pIC50: Homo sapiens, OVCAR-3, 24 h, read-out: IC50; for IC50: ovcar-3
# [2] = molecular target: Poly [ADP-ribose] polymerase 1 (Homo sapiens, UniProt P09874); assay: Inhibition of recombinant human GST-tagged PARP1 expressed in Escherichia coli using damaged DNA as substrate after 30 mins in presence of NAD+ by resazurin dye based fluorescence assay; conditions: for pIC50: read-out: IC50
# OVCAR-3 [3] = assay: Induction of apoptosis in human OVCAR3 cells assessed as downregulation of Bcl2 protein expression at 0.625 to 10 uM after 24 hrs by Western blot method; format: functional, cell-based
# Sequence of Poly [ADP-ribose] polymerase 1 (P09874 whole entry): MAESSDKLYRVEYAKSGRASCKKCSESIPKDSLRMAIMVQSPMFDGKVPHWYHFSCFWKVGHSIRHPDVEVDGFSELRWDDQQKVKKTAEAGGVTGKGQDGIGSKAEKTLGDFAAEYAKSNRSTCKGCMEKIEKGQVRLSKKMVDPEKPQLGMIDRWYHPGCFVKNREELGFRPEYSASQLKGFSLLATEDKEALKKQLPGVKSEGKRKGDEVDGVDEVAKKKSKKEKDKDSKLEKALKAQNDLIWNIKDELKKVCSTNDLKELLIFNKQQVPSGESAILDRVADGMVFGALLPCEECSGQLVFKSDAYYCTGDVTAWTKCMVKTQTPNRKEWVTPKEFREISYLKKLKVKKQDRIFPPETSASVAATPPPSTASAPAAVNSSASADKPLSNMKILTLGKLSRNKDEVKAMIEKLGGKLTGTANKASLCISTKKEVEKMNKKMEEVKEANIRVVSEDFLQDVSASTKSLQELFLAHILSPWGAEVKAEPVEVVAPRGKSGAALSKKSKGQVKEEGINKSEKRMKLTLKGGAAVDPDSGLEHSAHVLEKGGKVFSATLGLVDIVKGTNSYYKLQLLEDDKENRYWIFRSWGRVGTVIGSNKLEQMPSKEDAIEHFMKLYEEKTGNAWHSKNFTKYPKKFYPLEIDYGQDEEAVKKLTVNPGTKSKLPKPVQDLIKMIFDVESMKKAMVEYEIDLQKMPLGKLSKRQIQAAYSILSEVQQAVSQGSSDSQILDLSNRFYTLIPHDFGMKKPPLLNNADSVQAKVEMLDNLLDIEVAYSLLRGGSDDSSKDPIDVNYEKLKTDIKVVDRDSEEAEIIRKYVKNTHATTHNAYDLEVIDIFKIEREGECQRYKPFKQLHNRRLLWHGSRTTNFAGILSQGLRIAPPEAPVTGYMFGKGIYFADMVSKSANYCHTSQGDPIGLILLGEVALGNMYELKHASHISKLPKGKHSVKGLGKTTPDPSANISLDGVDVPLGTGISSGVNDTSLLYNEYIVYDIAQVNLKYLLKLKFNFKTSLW
pIC50 (OVCAR-3 [1]),IC50 (OVCAR-3 [1]),SMILES,pIC50 [2],Activity (OVCAR-3 [3]),IC50 [2]
5.48,–,CNCc1ccc(-c2[nH]c3cc(F)cc4c3c2CCNC4=O)cc1 [RUCAPARIB],–,–,–
< 4.00,–,O=C(NCc1nnc(-c2cccc3c(=O)c4ccccc4c(=O)[nH]c23)o1)c1ccccc1Cl,6.13,–,–
5.78,–,COc1ccc(Br)cc1/C=C/c1nnc(-c2cccc3c(=O)c4ccccc4c(=O)[nH]c23)o1,7.33,Active,–
–,Not Active,Cc1cc(-c2nnc(COc3ccccc3)o2)c2[nH]c(=O)c3ccccc3c(=O)c2c1,–,–,Not Active
< 4.00,–,O=C(NCc1nnc(-c2cccc3c(=O)c4ccccc4c(=O)[nH]c23)o1)c1ccccc1,5.90,–,–
< 4.00,–,COc1ccc(Cl)cc1/C=C/c1nnc(-c2cc(C)cc3c(=O)c4ccccc4c(=O)[nH]c23)o1,5.92,–,–
5.05,–,COc1ccccc1/C=C/c1nnc(-c2cccc3c(=O)c4ccccc4c(=O)[nH]c23)o1,6.87,–,–
–,Not Active,COc1ccc(Br)cc1/C=C/c1nnc(-c2cc(C)cc3c(=O)c4ccccc4c(=O)[nH]c23)o1,–,–,Not Active
5.20,–,O=c1[nH]c2c(-c3nnc(COc4ccccc4)o3)cccc2c(=O)c2ccccc12,7.00,–,–
4.92,–,O=c1[nH]c2c(-c3nnc(/C=C/c4ccccc4)o3)cccc2c(=O)c2ccccc12,6.40,–,–
4.75,–,Cc1cc(-c2nnc(/C=C/c3ccccc3)o2)c2[nH]c(=O)c3ccccc3c(=O)c2c1,6.35,–,–
4.97,–,COc1ccccc1/C=C/c1nnc(-c2cc(C)cc3c(=O)c4ccccc4c(=O)[nH]c23)o1,6.83,–,–
–,Not Active,COc1c(Br)cc(Br)cc1/C=C/c1nnc(-c2cc(C)cc3c(=O)c4ccccc4c(=O)[nH]c23)o1,6.03,–,–
–,Not Active,Cc1cc(-c2nnc(CNC(=O)c3ccccc3Cl)o2)c2[nH]c(=O)c3ccccc3c(=O)c2c1,–,–,Not Active
< 4.00,–,COc1ccc(F)cc1/C=C/c1nnc(-c2cccc3c(=O)c4ccccc4c(=O)[nH]c23)o1,6.02,–,–
< 4.00,–,COc1ccc(F)cc1/C=C/c1nnc(-c2cc(C)cc3c(=O)c4ccccc4c(=O)[nH]c23)o1,5.98,–,–
5.38,–,Cc1cc(-c2nnc(-c3ccccc3Cl)o2)c2[nH]c(=O)c3ccccc3c(=O)c2c1,7.29,–,–
< 4.00,–,COc1ccc(Cl)cc1/C=C/c1nnc(-c2cccc3c(=O)c4ccccc4c(=O)[nH]c23)o1,5.90,–,–
< 4.00,–,O=c1[nH]c2c(-c3nnc(-c4ccccc4)o3)cccc2c(=O)c2ccccc12,–,–,Not Active
5.00,–,Cc1cc(-c2nnc(-c3ccccc3)o2)c2[nH]c(=O)c3ccccc3c(=O)c2c1,6.56,–,–
5.85,–,COc1c(Br)cc(Br)cc1/C=C/c1nnc(-c2cccc3c(=O)c4ccccc4c(=O)[nH]c23)o1,7.60,Active,–
4.94,–,Cc1cc(-c2nnc(CNC(=O)c3ccccc3)o2)c2[nH]c(=O)c3ccccc3c(=O)c2c1,6.52,–,–
< 4.00,–,O=c1[nH]c2c(-c3nnc(-c4ccccc4Cl)o3)cccc2c(=O)c2ccccc12,5.96,–,–
